The target of the assay is T1, α-Glucosidase from Saccharomyces cerevisiae (Saccharomyces cerevisiae, UniProt P53341).
T1 construct: purchased Sigma-Aldrich (Madrid, Spain)
Description: α-Glucosidase inhibition assay (pNPG, absorbance 405 nm). The class given is biochemical. To be noted: 1 mg/mL. As to the method:
α-Glucosidase inhibition assay was performed following the previous method. Each 96-well microplate contained: 50 μL apple extract or the reference at different concentration and 100 μL of α-GLU (1U/mL) in phosphate buffer (pH 6.9). After 10 min, 50 μL of PNPG (50 μL) were added and incubated for 20 min at 37 °C. The absorbance was read at 405 nm. The percentage inhibition of α-glucosidase was calculated using the following formula:% inhibition = [(Abscontrol − AbsSample)/Abscontrol] × 100(1)

Molecules are shown by their SMILES.

T1 sequence (P53341 whole entry): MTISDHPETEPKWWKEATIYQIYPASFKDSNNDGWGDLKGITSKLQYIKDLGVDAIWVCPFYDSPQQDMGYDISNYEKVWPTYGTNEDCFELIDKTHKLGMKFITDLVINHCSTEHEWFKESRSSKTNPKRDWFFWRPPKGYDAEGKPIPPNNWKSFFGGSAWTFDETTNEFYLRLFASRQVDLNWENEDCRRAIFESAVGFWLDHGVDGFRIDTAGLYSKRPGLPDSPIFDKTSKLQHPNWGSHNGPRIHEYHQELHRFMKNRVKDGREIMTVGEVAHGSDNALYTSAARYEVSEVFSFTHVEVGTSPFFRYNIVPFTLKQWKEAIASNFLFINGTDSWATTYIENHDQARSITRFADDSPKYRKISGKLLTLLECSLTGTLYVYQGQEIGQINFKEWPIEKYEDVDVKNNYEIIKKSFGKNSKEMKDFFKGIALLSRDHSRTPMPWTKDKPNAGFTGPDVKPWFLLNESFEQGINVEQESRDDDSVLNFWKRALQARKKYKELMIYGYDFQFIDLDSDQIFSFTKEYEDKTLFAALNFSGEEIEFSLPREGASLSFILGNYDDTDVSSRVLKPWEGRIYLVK

Consider `C[C@H]1O[C@H](O[C@H]2[C@H](O)[C@@H](O)[C@@H](O[C@H]3[C@H](O)[C@@H](O)C(O)O[C@@H]3CO)O[C@@H]2CO)[C@H](O)[C@@H](O)[C@@H]1N[C@H]1C=C(CO)[C@@H](O)[C@H](O)[C@H]1O` (stereo partly shown) [Acarbose], for which testing at 1000 µg/mL gave an inhibition of 100%.

The term inhibition denotes the percentage by which the read-out fell short of the control.

The record behind these values is paper PMC7344947, “Phytochemicals and Enzyme Inhibitory Capacities of the Methanolic Extracts from the Italian Apple Cultivar Mela Rosa dei Monti Sibillini” (Pharmaceuticals, 2020).
